Compared with `CCN(CC)c1c(C(=O)O)n(-c2ccccc2)c2ccc(OC)cc12`, `COc1ccc2c(c1)ncc1c(=O)n(-c3ccccc3)oc12` is higher in melting point: 141 to 143 °C for the first, 170 °C for the second.

First: CC1=Nc2c(Br)cc(Br)cc2S(=O)(=O)N1
Second: Cc1cc(-c2cc(Cl)ccc2Cl)n2ncc(C#N)c2n1
The melting point of the first is higher: 287 to 289 °C for the first, 229 to 230 °C for the second.

Compared with `Cc1cccc2cc3c(=O)n(CCc4cn(C(=O)NCCN(C)C)c5ccccc45)cc(C(=O)NCCN(C)C)c3nc12`, `Cc1ccccc1Nc1c(C(=O)C(C)C)cnc2c(CO)cccc12` is lower in melting point: 182 to 185 °C for the first, 116 to 118 °C for the second.

First: Cc1nc(-c2cccc(C(=O)N[C@H]3CC[C@H](CCN4CCN(c5nccc6c5CCO6)CC4)CC3)c2)no1
Second: O=C(O)c1ccccc1N1CCN(CC(O)COc2ccc3c(c2)OCO3)CC1 (centres undefined)
The melting point of the first is lower: 218 °C for the first, 229 to 231 °C for the second.

Compared with `Cc1cc(NCCO)c2nn(-c3ccccc3)c(C)c2n1`, `CCOCc1nc2c(N)nc3cc(-c4ccccc4)ccc3c2n1CC(C)(C)O` is higher in melting point: 159 to 161 °C for the first, 211 to 212 °C for the second.

First: N#Cc1cc(S(=O)(=O)c2ccc([N+](=O)[O-])cc2)cc(Br)n1
Second: Cc1ccc(C)c(OCCCC(C)(C)C(=O)Nc2cccc([N+](=O)[O-])c2)c1
The melting point of the first is higher: 158 to 160 °C for the first, 93 to 94 °C for the second.

First: COc1ccc(CS(=O)(=O)c2cc3ccc(O)cc3oc2=O)cc1
Second: Nc1nc(NCCc2ccc(O)cc2)nc2nc(-c3ccco3)nn12
The melting point of the first is higher: 231 to 232 °C for the first, 225 to 227 °C for the second.

First: Cn1cc(-c2ccccc2)c(=O)c(-c2cccc(S(=O)(=O)c3ccccc3)c2)c1
Second: O=c1cc(-c2ccccc2)nc2ccn(-c3ccccc3)n12
The melting point of the first is lower: 65 to 72 °C for the first, 194 to 200 °C for the second.

First: CC(C)CCCC(C)C1CCC2C3CC=C4CC(I)CCC4(C)C3CCC12C (centres undefined)
Second: CC(C)c1cccc(C(C)C)c1NC(=O)NC1CCCCC1c1ccccc1 (centres undefined)
The melting point of the first is lower: 106 °C for the first, 225 to 226 °C for the second.

First: CCc1c(OC)nc2nc(C(=N)NO)cn2c1C
Second: CCOC(=O)c1c(O)c2cnc(-c3ccccc3)nc2n(CCOC)c1=O
The melting point of the first is higher: 249 to 250 °C for the first, 178 to 179 °C for the second.

First: CC(C)(C)C(=O)CC(Sc1ccccc1)c1ccc(Cl)cc1 (centres undefined)
Second: NC(=O)c1ccccc1NC(=O)c1ccc(Cl)cc1
The melting point of the first is lower: 127 to 128 °C for the first, 205 to 207 °C for the second.

First: Cn1c(=O)c2nc(-c3ccc(/C=C/C(=O)O)cc3)[nH]c2n(Cc2cccc(C#N)c2)c1=O
Second: C[C@@H](n1cnc2cc(-c3ccc(C#N)cc3)sc2c1=O)[C@](O)(Cn1cncn1)c1ccc(F)cc1F
The melting point of the first is higher: > 300 °C for the first, 231 to 232 °C for the second.

First: CSc1ccc(-c2nc(SC)c(C#N)c(=O)n2-c2ccc(C(C)C)cc2)cc1
Second: CCNS(=O)(=O)c1ccc(N2N=C(C)C(=CNc3ccccc3OCC)C2=O)cc1
The melting point of the first is lower: 180 to 181 °C for the first, 238 °C for the second.

Compared with `CCCCOC(=O)[C@@H]1OC(c2ccc(C#Cc3ccc(C4O[C@@H](C(=O)OCCCC)[C@H](C(=O)OCCCC)O4)cc3)cc2)O[C@H]1C(=O)OCCCC`, `CCOC(=O)CCCCCCCCCCCNC(=O)c1cc(OCc2ccccc2)ccc1OCc1ccccc1` is higher in melting point: 54 °C for the first, 70 to 71 °C for the second.

First: COc1cc(OC)c(C=CC(=O)c2ccc(S(N)(=O)=O)cc2)cc1C#Cc1ccccc1N
Second: COc1ccc(OC)c(C(=O)c2cccc(OC)c2C(=O)O)c1
The melting point of the first is lower: 167 to 169 °C for the first, 180 to 182 °C for the second.

First: CC(I)CC(F)(F)C(F)(F)C(F)(F)C(F)(F)CC(C)I (centres undefined)
Second: Oc1c(C(O)(C(F)(F)F)C(F)(F)F)cc(Br)c2ccccc12
The melting point of the first is lower: 35 to 35.5 °C for the first, 112 to 115 °C for the second.

First: COc1cc(-c2ccccc2Cl)c(Cl)cc1C(=O)N1Cc2cccn2Cc2ccccc21
Second: O=C1NC(=O)c2c1c(-c1ccccc1Cl)cc1c2c2cc(O)ccc2n1CCCSc1ccccc1
The melting point of the first is lower: 209 to 211 °C for the first, 229 to 231 °C for the second.

First: CNC(=O)Oc1ccc(N=Cc2ccccc2O)c(C)c1
Second: O=C(O)Cc1ccc2c(c1)Cc1ccccc1CC2=O
The melting point of the first is lower: 156 to 157 °C for the first, 178 to 181 °C for the second.

First: Cc1ccnc2c(N)cc3c(c12)OCO3
Second: Cc1csc2c(C(=O)O)c(=O)c3cc4c(cc3n12)OCO4
The melting point of the first is lower: 118 to 120 °C for the first, 303 to 305 °C for the second.

First: CCCC[C@@H](O)[C@H](O)CCCC
Second: CCCc1c(OCCCSCCC(=O)O)ccc(C(C)=O)c1O
The melting point of the first is lower: 48 to 49 °C for the first, 90 to 92 °C for the second.

First: CCOC(=O)C1=CC2(CCC1S(=O)(=O)Nc1ccc(F)cc1Cl)OC1COCC1O2 (centres undefined)
Second: Cc1c(S(=O)(=O)Nc2ccc(CO)cc2S(C)(=O)=O)sc2ccc(F)cc12
The melting point of the first is higher: 227 to 228 °C for the first, 120 to 121 °C for the second.

First: C/C(=C\c1ccc(OCCN(C)C)cc1)c1ccc2c(c1)SCC(C)(C)CS2
Second: Cc1cccc(C)c1NC(=O)c1ccc(NC(=O)CN(C)C)cc1
The melting point of the first is lower: 46 to 47 °C for the first, 276 to 278 °C for the second.

First: O=C(CCCCCBr)c1cc2c3c(c1)CCC(=O)N3CCC2
Second: O=C(O)c1cnc(Nc2cc3c4c(c2)CCCC4CCC3)nc1
The melting point of the first is lower: 52 to 53 °C for the first, 296 to 298 °C for the second.

First: CCCCN(C)c1nccc2ccc(C(=O)N[C@@H](Cc3cc(F)cc(F)c3)[C@H](O)CNCc3cccc(CC)c3)cc12
Second: CC[Si](C#CC1(COCc2ccccc2)OC(n2ccc(=O)[nH]c2=O)C(O)C1OCc1ccccc1)(CC)CC (centres undefined)
The melting point of the first is higher: 120 to 121 °C for the first, 119 to 120 °C for the second.

First: CC(=O)OC1(c2ccc3c(c2)OCO3)C(=O)N(Cc2ccc(Cl)cc2)c2ccccc21 (centres undefined)
Second: O=C(O)C(c1ccc2c(c1)OCO2)n1nc(-c2ccccn2)ccc1=O (centres undefined)
The melting point of the first is higher: 146 to 148 °C for the first, 115 °C for the second.

Compared with `CC1(C)Oc2c(ccc3ccccc23)C2OC21` (centres undefined), `CNCc1cccc2c(=O)c(C)c(-c3ccccc3)oc12` is lower in melting point: 120 to 121 °C for the first, 97 to 99 °C for the second.

First: N#CC(c1ccccc1)(c1ccccc1)n1ccnc1
Second: Cc1cn2cccc(C=Cc3ccccc3)c2n1
The melting point of the first is lower: 95 to 98 °C for the first, 101 to 105 °C for the second.

Compared with `FC(F)(F)Oc1cccc(Cn2cnc3c(-c4ccco4)ncnc32)c1`, `O=C(Nc1ccc(OC(F)(F)F)cc1)c1ccccc1NCc1ccc(=O)[nH]c1` is higher in melting point: 133 to 135 °C for the first, 189 °C for the second.

Compared with `CC(=O)ON1C(C)(C)CC(C(N)=O)C1(C)C` (centres undefined), `CC(=O)O[C@H]1CC[C@H](CCCCCC(=O)O)CC1` is lower in melting point: 150 to 151 °C for the first, 82 to 86 °C for the second.

First: CCCc1c(O)c(C(=O)O)cc(Cl)c1OCCCCCCc1cccc(O)c1O
Second: Cc1cccc(C(=O)O)c1OCc1ccc(C(F)(F)F)cc1
The melting point of the first is higher: 110 to 113 °C for the first, 104 to 106 °C for the second.

First: COc1cc2c(=O)n(CCN(C)C)c3c(cnc4cccc(N)c43)c2cc1OC
Second: COc1ccc(OC)c2c1c(C(=O)C(=O)NC1=CC(=O)OC1)cn2Cc1ccc(Cl)cc1
The melting point of the first is higher: 239 to 241 °C for the first, 212 to 215 °C for the second.

Compared with `Cc1cccc(C(=O)Nc2c[nH]nc2C(=O)NCC(C)(C)CO)n1`, `CC(C)(C)C(=O)C(O)NC(=O)c1ccc(Cl)cc1` (centres undefined) is lower in melting point: 217 to 218 °C for the first, 130 °C for the second.

First: CCCn1nc2c(N)nc3c(c2c1CC(C)(C)O)CCCC3
Second: c1ccc(-c2cn3c4c(sc3n2)CCCC4)cc1
The melting point of the first is lower: 143 to 145 °C for the first, 158 to 160 °C for the second.

Compared with `COc1ccc(/C=C/C(=O)/C=C/c2ccc(C(F)(F)F)cc2)cc1`, `COc1cc(NC(C)=O)cc(C(F)(F)F)c1` is lower in melting point: 144 to 146 °C for the first, 123 to 124 °C for the second.

Compared with `Cn1nc(-c2c(Cl)cccc2Cl)nc1-c1cccnc1Cl`, `CC(=NNC(N)=O)c1ccc2nnn(Cc3ccc4ncccc4c3)c2n1` is higher in melting point: 133 to 136 °C for the first, 249 to 250 °C for the second.

Compared with `CCN(CC)c1cccc(OCCOS(N)(=O)=O)c1`, `Nc1c(NCCCOc2cccc(C=O)c2)c(=O)c1=O` is higher in melting point: 105 to 106 °C for the first, 203 to 206 °C for the second.

First: CCC(=O)Nc1c(C#N)cnn1-c1c(Cl)cc(Cl)c(Cl)c1Cl
Second: CS(=O)(=O)NCC(=O)N1CCC(C2c3ncc(Br)cc3CCc3cc(Cl)cc(Cl)c32)CC1 (single isomer, unassigned; (+))
The melting point of the first is higher: 203 to 204 °C for the first, 120 to 140 °C for the second.

Compared with `O=C(Nc1ccc(OC(F)(F)F)cc1)N1CC(c2sncc2C(F)(F)F)C(c2ccc(Cl)cc2)=N1` (centres undefined), `CCCN(C(=O)OCC(Cl)(Cl)Cl)C1CN(C(=O)Nc2ccc(C(F)(F)F)cc2)N=C1c1ccc(Cl)cc1` (centres undefined) is higher in melting point: 101 to 104 °C for the first, 172 to 173 °C for the second.

First: CCOC(=O)C(Oc1cccc2[nH]ccc12)C(=O)OCC
Second: CCOC(=O)C1=C(CSC(C)=O)NC(C)=C(C#N)C1c1cccc([N+](=O)[O-])c1 (centres undefined)
The melting point of the first is lower: 52 to 53 °C for the first, 155 to 157 °C for the second.

First: CCOc1ccc(C(=O)C2CC2)cc1
Second: Cc1ccc(N)c(C(=S)NCC2CC2)c1
The melting point of the first is lower: 67 to 70 °C for the first, 124 °C for the second.

Compared with `CN1C(=O)c2cnc(-c3ccccc3)nc2N(C(=O)CN2CCN(Cc3ccccc3)CC2)c2ccccc21`, `O=c1cc(-c2cc(OCc3ccccc3)cc(OCc3ccccc3)c2)oc2cc(OCC(O)CN3CCN(c4ccccc4)CC3)ccc12` (centres undefined) is lower in melting point: 194 °C for the first, 168 to 170 °C for the second.

Compared with `O=C(O)C(=O)NC1CCCCCCC1`, `CNC(=O)NC(=O)C(CC1CCCC1)c1ccc(C(F)(F)F)c(F)c1` (centres undefined) is higher in melting point: 115 to 116 °C for the first, 187 to 189 °C for the second.

First: CN(C)CC(=O)Nc1ccc2c(c1)C(=O)c1cc(NC(=O)CN(C)C)ccc1C2=O
Second: CC(C(N)=O)c1cccc2c1Oc1ccccc1CC2=O (centres undefined)
The melting point of the first is higher: 218 °C for the first, 177 to 178 °C for the second.

First: Oc1ccccc1CCCC1CCNCC1
Second: C=C(C#N)C(=O)NCCCc1ccccc1
The melting point of the first is higher: 152 °C for the first, 83 °C for the second.

Compared with `C=CCON(C1=NCCN1)c1c(F)cccc1Br`, `Nc1c([N+](=O)[O-])sc2c(F)cccc12` is higher in melting point: 141 °C for the first, 238 to 240 °C for the second.

First: O=C(c1ccccc1)c1cc(-c2ccncc2)sc1-c1ccncc1
Second: Cc1ccc(C)c(OCc2ccccc2C(=O)c2ccon2)c1
The melting point of the first is higher: 168 to 170 °C for the first, 90.5 to 92 °C for the second.

Compared with `CS(=O)(=O)Nc1ccc(OC2SCC(O)C(O)C2O)cn1` (centres undefined), `NC(=O)C(Cc1ccccc1)NC(=O)Nc1n[nH]c(=S)s1` (centres undefined) is lower in melting point: 201 to 204 °C for the first, 175 to 177 °C for the second.

First: CC(C)C(c1ccc2[nH]c(=O)cnc2c1)n1ccnc1 (centres undefined)
Second: CC(C)C[C@H](NC(=O)N1CCCCCC1)C(=O)N[C@H](Cc1ccc(OCc2ccccc2)cc1)C(=O)OC(C)(C)C
The melting point of the first is higher: 194 °C for the first, 38 to 40 °C for the second.

Compared with `COc1ccc(C2=CCC(N3CCN(Cc4ccccc4)CC3)CC2)cc1` (centres undefined), `O=C(Nc1ccc(C(=O)N2Cc3ccccc3Cc3ccccc32)cc1)c1cccc(C(F)(F)F)c1` is higher in melting point: 126 to 128 °C for the first, 190 to 191 °C for the second.

With `CCOC(=O)C=Cc1ccc(N)c(O)c1` the melting point was 134 to 135 °C.

From a melting point compilation (Tetko et al.; mined from patent text by program, amines drawn as free bases though some values may be those of a salt)
